Reference: patent publication US20240197896A1, “SYNTHETIC PEPTIDE SHUTTLE AGENT BIOCONJUGATES FOR INTRACELLULAR CARGO DELIVERY” (FELDAN BIO INC., priority 2021, published 2024)
Like-named read-outs stand apart in the source and are kept apart here. Ends that are not written are not given here.

What was measured:
[1] = Cell viability / cytotoxicity in HeLa transduction assays (flow cytometry FSC/SSC); type: cell-based; settings: human, HeLa cells
Description: (§1) HeLa cells were plated (20 000 cells/well) in a 96 well-dish one day prior to transduction. Each delivery mix comprising a PEGylated shuttle agent (monomer or multimer) or a non-PEGylated shuttle agent at the indicated concentration(s) and 10 μM of a fluorescent cargo (e.g., GFP-NLS or DRI-NLS^647) was prepared in 50 μL with RPMI 1640 media completed with 10% human serum. Cells were washed once with PBS 1×, then incubated for 5 minutes with the prepared shuttle/cargo mix, PEGylated shuttle agent/cargo mix, and/or with the cargo alone as a negative control. After the incubation, 100 μL of DMEM containing 10% FBS was added to the mix and removed. Cells were washed once with PBS 1× and incubated in DMEM containing 10% FBS. Cells were then analyzed after a 1-hour incubation by fluorescence microscopy (Revolve, Echo: San Diego, CA, USA) and flow cytometry (Cytoflex™, Beckman Coulter: Indianapolis, IN, USA).
The signal intensity emitted by the fluorescent cargo and the percentage of cargo delivered cells was quantified by flow cytometry. Untreated cells were used to establish a baseline to quantify the increase in fluorescence that results from a successful internalization of the cargo in the presence of the shuttle agent in the treated cells. The percentage of cells with a fluorescence signal greater than the maximum fluorescence of untreated cells, “mean %” or “Pos cells (%)”, was used to identify positive fluorescent cells for determining transduction efficiency. The mean fluorescence intensity (Mean-FITC/APC) is the average of all fluorescence intensities of each cell with a fluorescent signal after delivery of fluorescent cargos. “Delivery scores” were calculated to provide a further indication of the total amount of cargo that was delivered per cell amongst all cargo-positive cells and was calculated by multiplying the mean fluorescence intensity (of at least duplicate samples) measured for the viable cargo-positive cells, by the mean percentage of viable cargo-positive cells, divided by 100,000. Finally, a “Delivery-Viability Score” was sometimes calculated for each peptide as the Mean viability multiplied by the Delivery Score multiplied by 10, enabling a ranking of the shuttle agents in terms of both their transduction activity and toxicity. Furthermore, the events detected by the cytometer and which correspond to the cells (size and granularity) were analyzed. Cellular toxicity (% cell viability) is obtained by comparing the size (FSC) and granularity (SSC) of each cell delivery condition to untreated cells. The delivery conditions of the cells also included the “cargo only” as a control.

in vitro = settings: human, cerebrospinal or other body fluid
Description: To evaluate the effect of sputum from CF patients on the shuttle agent conjugates, degradation of FSD10 or FSD10-mal-PEG20K was first assessed to determine whether addition of a PEG on the shuttle was protective from the sputum.

HeLa cells [2] = experiment: In vitro transduction of DRI-NLS^647 cargo in HeLa cells (flow cytometry and fluorescence microscopy); type: cell-based, Human; settings: used at 10 μM; cargo 10 μM
Description: as §1, with “Cells were washed once with PBS 1× and incubated in DMEM containing 10% FBS.” left out
(§2) The signal intensity emitted by the fluorescent cargo and the percentage of cargo delivered cells was quantified by flow cytometry. Untreated cells were used to establish a baseline to quantify the increase in fluorescence that results from a successful internalization of the cargo in the presence of the shuttle agent in the treated cells. The percentage of cells with a fluorescence signal greater than the maximum fluorescence of untreated cells, “mean %” or “Pos cells (%)”, was used to identify positive fluorescent cells for determining transduction efficiency. […]

HeLa cells [3] = experiment: In vitro transduction of GFP-NLS cargo in HeLa cells (flow cytometry and fluorescence microscopy); type: cell-based; settings: used at 10 μM; 10% human serum
Description: as §1, with “Cells were washed once with PBS 1× and incubated in DMEM containing 10% FBS.” left out
as §2

cells = settings: following the cells being exposed to the shuttle agent and cargo; cited from earlier work

Work on “KWKLARAFARAIKKLGGSGGGSYARALRRQARTG [FSD10]” yielded a viability at 5 min, 20 µM ([1]; shuttle agent at 20 μM, 10 μM GFP-NLS) of 55%, a viability at 5 min, 40 µM ([1]; shuttle agent at 40 μM, 10 μM GFP-NLS) of 6% and a viability at 5 min ([1]; shuttle agent, 10 μM GFP-NLS, read-out: cell viabilities) of under 10%. For the same compound, the metabolised at 5 min (in vitro) was 40%.
In the case of “FSD10scr: negative control peptide, same amino acids of FSD10 rearranged in a scrambled order (KWKLARAFARAIKKLGGSGGGSYARALRRQARTG; FSD10 Scarmble)”, the “nuclear cargo transduction of independent DRI-NLS^647 by microscopy” value (HeLa cells [2]) is reported as “no significant transduction” and the “nuclear cargo transduction of GFP-NLS by microscopy” value (HeLa cells [3]) is reported as “no significant transduction”.
In the case of “His-CM18-PTD4: first generation shuttle agent (HHHHHHKWKLFKKIGAVLKVLTTGYARAAARQARA; His-CM18-PTD4)”, the “time to deliver GFP-NLS cargo to the cytosol” value (cells) is listed as 45 s.
For `N=C(N)NCCC[C@H](NC(=O)[C@H](CCCNC(=N)N)NC(=O)[C@H](CCCNC(=N)N)NC(=O)[C@H](CCC(N)=O)NC(=O)[C@H](CCCNC(=N)N)NC(=O)[C@H](CCCNC(=N)N)NC(=O)[C@H](CCCCN)NC(=O)[C@H](CCCCN)NC(=O)[C@H](CCCNC(=N)N)NC(=O)CNC(=O)[C@@H](N)Cc1ccc(O)cc1)C(=O)O` [TAT], the viability at 5 min ([1]; concentrations of 10 to 220 μM (data not shown), read-out: viabilities) was over 80%.
